The target in this assay is EGF receptor tyrosine kinase (EGFR) (Homo sapiens, UniProt P00533). As to the kind of experiment: AlphaScreen P-Tyr-100 kinase assay with poly[Glu:Tyr] ([…]) substrate. It is filed as biochemical. (In general: Bead proximity is the source of the signal in Alpha formats.)

Results on 2 compounds are retold here after publication PMC3673896, “3,4-dihydroxyphenyl acetic acid and (+)-epoxydon isolated from marine algae-derived microorganisms induce down regulation of epidermal growth factor activated mitogenic signaling cascade in Hela cells” (Cancer Cell International, 2013).

For orientation: IC50 means the midpoint of a concentration-inhibition curve.

Sequence of EGF receptor tyrosine kinase (EGFR) (P00533 669-1210 limits assumed): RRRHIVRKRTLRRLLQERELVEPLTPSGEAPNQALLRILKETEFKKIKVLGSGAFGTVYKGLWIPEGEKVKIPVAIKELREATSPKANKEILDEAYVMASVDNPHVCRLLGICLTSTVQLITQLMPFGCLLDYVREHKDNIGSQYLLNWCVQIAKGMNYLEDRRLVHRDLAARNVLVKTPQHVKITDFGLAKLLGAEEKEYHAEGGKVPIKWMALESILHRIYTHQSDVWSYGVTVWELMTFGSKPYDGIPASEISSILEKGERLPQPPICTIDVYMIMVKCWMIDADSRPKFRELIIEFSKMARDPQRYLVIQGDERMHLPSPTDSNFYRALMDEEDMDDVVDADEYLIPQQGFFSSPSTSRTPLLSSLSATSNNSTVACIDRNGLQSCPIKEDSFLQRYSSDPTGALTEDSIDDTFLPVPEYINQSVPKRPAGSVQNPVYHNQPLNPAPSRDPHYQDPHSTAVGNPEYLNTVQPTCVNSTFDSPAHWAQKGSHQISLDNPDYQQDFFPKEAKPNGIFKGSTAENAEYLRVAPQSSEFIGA

As for `O=C1C(CO)=C[C@@H](O)[C@H]2O[C@@H]12` [(+)-epoxydon], the half-inhibitory concentration (IC50) is 3.84 µM.

Regarding `O=C(O)Cc1ccc(O)c(O)c1` [3,4-dihydroxyphenyl acetic acid], half-maximal inhibition (IC50) required 16.7 µM. Against the preceding compound, the IC50 is about 4.3-fold higher.
